Test results published in the NIST ThermoML archive (doi:10.1016/j.jct.2009.06.009).
Values joined by “and” are separate entries in the source; they are usually repeats but may differ in a detail not shown here. Equal values may be shown once. Numbers after ± are expanded uncertainties.

Conditions: Liquid, Closed cell (Static) method

CCCC [butane]
vapor or sublimation pressure (283.15 K): 148 ± 2 kPa | vapor or sublimation pressure (293.15 K): 208 ± 2 kPa | vapor or sublimation pressure (303.15 K): 282 ± 2 kPa | vapor or sublimation pressure (313.15 K): 378 ± 2 kPa

CCC [propane]
vapor or sublimation pressure (283.15 K): 638 ± 3 kPa | vapor or sublimation pressure (293.15 K): 840 ± 3 kPa | vapor or sublimation pressure (303.15 K): 1083 ± 3 kPa | vapor or sublimation pressure (313.15 K): 1375 ± 4 kPa

FC(F)F [trifluoromethane]
vapor or sublimation pressure (283.15 K): 3246 ± 9 kPa and 3242 ± 9 kPa | vapor or sublimation pressure (293.15 K): 4158 ± 10 kPa and 4162 ± 10 kPa
